Assay results reported in patent US20060084134A1, “Direct ethanol metabolite ethyl sulfate as an useful diagnostic and therapeutic marker of alcohol consumption” (priority 2004, published 2006).
Where a name gives a salt, the structure may show the parent alone. Read-outs that look alike come from different tables or passages of the source.

What was measured:
[1] = human, in vivo
Protocol: (§1) Characteristic tandem-mass spectrometric fragmention of EtS, purchased from ABCR Karlsruhe/Germany, was obtained when analyzing EtS solution in product ion scan mode: deprotonated molecule (M-H)^−, m/z 125 and fragment ions m/z 80 and 97. An LC-MS/MS-method, which has previously been published for the determination of EtG (Weinmann 2004), was modified by inclusion of the transitions for EtS. Subsequent LC/MS/MS-analysis was performed in MRM-mode (m/z 125 to m/z 97 and m/z 80 and by monitoring the unfragmented precursor ion (m/z 125) of EtS (ion chromatograms of diluted reference solution see FIG. 1). A gradient elution with increasing acetonitrile concentration of the eluting solvent was used—all other chromatographic equipment was as described in the article by Weinmann et al. (Weinmann 2004).
(§2) Sample preparation was done by addition of D5-EtG and dilution of the urine sample prior to injection in the LC-MS/MS system. Quantification was performed using D5-EtG as internal standard.

[2] = cited from earlier work
[3] = cited from earlier work; remark: listed apart in the source
[4] = Controlled drinking experiment with a healthy volunteer: urinary excretion profile by LC-MS/MS; conditions: for UAC (urine alcohol concentration): 540 ml wine, 49 g ethanol
Protocol: as §1, §2

For `CCO[C@@H]1O[C@H](C(=O)O)[C@@H](O)[C@H](O)[C@H]1O` [EtG, ethyl glucuronide], the “detection in urine at the last time point” value [1] is given as “positive”, the “time detectable following complete elimination of alcohol from the body” value ([2]; dose-dependently, after even minor amounts of alcohol like 10 grams) is given as 4 days and the “time detectable in hair” value [2] is given as “months”. For the same molecule, the “time detectable in urine after cessation of ethanol intake” value ([2]; urine) was “up to 5 days” and the “water solubility (in words)” value [3] was “water-soluble”.
With `CCO` [ethanol] the “time since which urinary ethanol (UAC) had not been detectable” value ([4]; counted back from the 36 hours time point) was 23 h, the “UAC (urine alcohol concentration)” value ([4]; 0 h:min after ethanol uptake) was 0.003 g % and the “UAC (urine alcohol concentration)” value ([4]; 1:00 h:min after ethanol uptake) was 0.022 g %. For the same molecule, the “UAC (urine alcohol concentration)” value ([4]; 2:06 h:min after ethanol uptake) was 0.078 g %, the “UAC (urine alcohol concentration)” value ([4]; 2:46 h:min after ethanol uptake) was 0.082 g % and the “UAC (urine alcohol concentration)” value ([4]; 8:00 h:min after ethanol uptake) was 0.046 g %. The “UAC (urine alcohol concentration)” value ([4]; 11:20 h:min after ethanol uptake) was 0.003 g %, the “UAC (urine alcohol concentration)” value ([4]; 13:20 h:min after ethanol uptake) was 0 g % and the “UAC (urine alcohol concentration)” value ([4]; 14:50 h:min after ethanol uptake) was 0 g %. The “UAC (urine alcohol concentration)” value ([4]; 16:40 h:min after ethanol uptake) was 0 g %, the “UAC (urine alcohol concentration)” value ([4]; 19:10 h:min after ethanol uptake) was 0 g % and the “UAC (urine alcohol concentration)” value ([4]; 21:30 h:min after ethanol uptake) was 0 g %. The “UAC (urine alcohol concentration)” value ([4]; 26:30 h:min after ethanol uptake) was 0 g %, the “UAC (urine alcohol concentration)” value ([4]; 32:00 h:min after ethanol uptake) was 0 g % and the “UAC (urine alcohol concentration)” value ([4]; 36:00 h:min after ethanol uptake) was 0 g %.
With `CCOS(=O)(=O)O` [EtS, ethyl sulfate] the “time detectable in urine” value [1] was “up to 36 hours”.
In the case of phosphatidylethanol [PEth], the “time detectable in whole blood after cessation of ethanol intake” value ([2]; whole blood) is given as greater than 2 weeks.
For fatty acid ethyl esters [FAEEs], the “time detectable in hair” value [2] is listed as “several months”, the “time detectable in hair” value ([2]; listed as FAEE) is listed as “months” and the “time detectable in serum and erythrocytes after drinking” value ([2]; serum and erythrocytes) is listed as “up to 24 h”. The “time detectable in serum after cessation of ethanol intake” value ([2]; serum) was “up to 24 h” and the “stability in blood samples (in words)” value ([3]; blood samples, continued enzyme activity) was “not stable”.
